Measured values published in patent publication EP3698777A1, “COMPOSITION FOR PREVENTING AND TREATING DEPRESSIVE AND COGNITIVE SYMPTOMS” (NEURAXPHARM ITALY S.P.A., priority 2019, dated 2020).

What was measured:
[1] = system: Human microglia cells HMC3; test: Cell viability test (MTT assay); format: cell-based; settings: 24 hours incubation, saffron extract 1 or 3 µg/mL, NAC 200 or 600 µM, fish oil 8.5 or 28.5 µg/mL, Figure 1
Protocol: Human microglia cells HMC3 (ATCC® CRL-3304™) were cultured in EMEM (Eagle's minimum essential medium) containing 10% FBS (fetal bovine serum) and PSG (1000 U/ml of Penicillin, 10000 ug/ml of Streptomycin, 29.2 mg/ml of L-Glutamine). The HMC3 cells were placed in 96-well plates with a density of 40,000 cells/well and let to adhere overnight in an incubator at 37°C, 5% CO2. The cells were then treated or not with different concentrations of the substances of the invention (saffron extract (1 µg/mL or 3 µg/mL), NAC (200 µM or 600 µM) or fish oil (8.5 µg/mL or 28.5 µg/mL) dissolved in EMEM with 10% FBS). After 24 hours incubation, cell viability was determined by MTT assay. Then, 10 µL of MTT (5 mg/mL solution) were added to the cells and incubated for 1 hour, followed by removal of the medium and dissolution of the crystals formed in 100 µL of isopropanol. Absorbance at 570 nm was measured with a spectrophotometer (SEAC SIRIO S) and the cell viability was expressed as a percentage of untreated control cells.

[2] = ORAC test (Oxygen Radical Absorbance Capacity); settings: single ingredients taken at their percentage composition in the combination; combination = 1000 mg fish oil + 600 mg NAC + 30 mg dry saffron extract; Figure 2
Protocol: The ORAC method was used to assess the antioxidant activity of the substances of the invention by measuring the ability to protect the fluorescent probe (fluorescein) from damage due to peroxyl radical generated by spontaneous decomposition of AAPH (2,2'-azobis (2-amidine-propane) dihydrochloride) at 37°C, with consequent loss of fluorescence. The protective effect of the substances of the invention, alone or in combination, was measured by evaluating the longer area of time/fluorescence intensity under the curve (AUC) of the sample compared to the blank (AUC), wherein substances are not present. Trolox was the antioxidant used as the calibration standard, the ORAC results being expressed as Trolox equivalent micromol/gram of sample (i.e. µmol TE/g). […]
The ORAC test was performed by adding 150 µL of working solution with fluorescein to all the microplate wells, followed by the addition of 25 µL of diluted buffer (white), 50 µL of diluted buffer (control), 25 µL of standard (Trolox 6.25 - 50 µM) or 25 µL of the samples prepared before filling the microplate wells. […] The plate was immediately transferred to the plate reader and the fluorescence was measured every minute for 35 minutes. Fluorescence readings refer to the highest reading of the wells in which no AAPH (controls) is added.
The net AUC of the standards and samples were calculated. […]

For CC(=O)N[C@@H](CS)C(=O)O [NAC, N-acetylcysteine], the cell viability [1] was “do not influence the cell viability” and the “antioxidant activity (ORAC)” value [2] was 24.04 TE µmol/g.
